Experimental data: the METLIN SMRT retention time set (Domingo-Almenara et al. 2019)

Assay: gradient 5% acetonitrile 3 min, to 50% in 2 min, to 85% in 15 min, held 3 min, 100 µL/min
Conditions: column: Zorbax Extend-C18 2.1 x 50 mm; eluents: water / acetonitrile, 0.1% formic acid
How it was run: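 Values are retention times taken from adduct peaks that software picked and an analyst inspected. The pure standards were run as mixtures of ~100 molecules on HPLC linked to a quadrupole time-of-flight mass spectrometer, in positive and negative ionization mode. A Zorbax Extend-C18 column (2.1 × 50 mm, 1.8 μm) was used at 100 μL/min with water and acetonitrile, each including 0.1% formic acid.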

Row | SMILES | RP-LC retention time [s]
1 | CC(=O)N1CCCC(C(=O)N2CCOCC2)C1 (stereo unspecified) | 554
2 | O=C(NCc1ccccc1C(F)(F)F)c1cn2c(n1)CCCC2 | 640
3 | COc1ccc(C(=O)N2CC(C(=O)NC3CC3)C(c3ccc(OC)cc3OC)C2)cc1 (stereo unspecified) | 703
4 | CCSc1ccccc1C(=O)NCc1ccsc1 | 786
5 | CCCNC(=O)c1n[nH]c2c1CCCCCC2 | 776
6 | CN1CCN(c2ccc(-c3cccc(NC(=O)c4ccccc4F)c3)nn2)CC1 | 693
7 | O=c1[nH]cc(I)cc1I | 723
8 | Cc1nnc(-c2cn(CC(=O)NCc3ccccc3Cl)c3ccccc23)o1 | 821
9 | O=C1NC2(CCN(C(=O)c3ccccc3Cl)CC2)N=C1c1cccc(F)c1 | 776
10 | COc1ccc(S(=O)(=O)Nc2cc(-c3cn4cccc(C)c4n3)ccc2C)cc1 | 664
11 | OC[C@@H]1CNC[C@H]1C1CCN(Cc2ccc(OC(F)(F)F)cc2)CC1 | 591
12 | CCCC(=O)Nc1cc2c(cc1S(=O)(=O)c1ccc(F)cc1)n(C)c(=O)n2C | 767
13 | CC(C)(C)c1ccc(O)c(NC(=O)c2cn(-c3ccc(S(=O)(=O)N4CCOCC4)cc3)cn2)c1 | 966
14 | Cn1ccc2c(cc(C(=O)NCc3ccc(N4CCOCC4)cc3)n2C)c1=O | 614
15 | O=C(Cn1nc(S(=O)(=O)c2ccccc2)ccc1=O)N1CCN(c2ccccc2F)CC1 | 870
16 | CCn1c(N2CCCC(C(=O)NCCOC)C2)cc(=O)n(C)c1=O (stereo unspecified) | 646
17 | CC(C)NC(=O)C1Cc2cc(C(F)(F)F)ccc2N2CCN(c3ccccc3)CC12 (stereo unspecified) | 1100
18 | O=C1CC(C(=O)N2CCCCCC2)CN1CCc1ccccc1 (stereo unspecified) | 760
19 | O=C(Cn1cccc1-c1nc(-c2ccc3c(c2)OCO3)no1)Nc1ccc(F)cc1 | 994
20 | Cc1ccc(N(C)C(=O)c2nc(N3CCSCC3)c3cnn(C)c3n2)cc1 | 812

Row | SMILES | RP-LC retention time [s]
21 | CCCn1c(=O)sc2cc(S(=O)(=O)N3CCC(C(=O)Nc4ncccc4C)CC3)ccc21 | 660
22 | Cc1ccc(C)c(NC(=O)NCC2CCOCC2)c1 | 705
23 | CC(C)(C)n1nc2c(c1-n1cccc1)CN(C(=O)C1COc3ccccc3O1)C2 (stereo unspecified) | 1050
24 | COc1ccc(NC(=O)c2cn(-c3cc(N(C)C)ncn3)cn2)cc1F | 782
25 | COc1ccc(CCC(=O)N2CCn3c(C)nnc3C2)cc1 | 569
26 | O=C(CSc1nccn(-c2ccc(F)c(F)c2)c1=O)NCc1ccccc1Cl | 816
27 | CCC(C)NC(=O)N1CCc2c(c(-c3nc(-c4ccc(F)cc4)no3)nn2C)C1 (stereo unspecified) | 594
28 | CCn1cc(C(=O)NCC2CC2)c(S(=O)(=O)N2CCSCC2)n1 | 817
29 | Cc1nn(C(C)C(=O)NCCCN(C)C2CCCCC2)c(=O)c2c(C)n(-c3ccccc3)nc12 (stereo unspecified) | 675
30 | CC(C)N1CCC(c2nnc3n2CCN(S(=O)(=O)c2ccccc2Cl)C3)C1 (stereo unspecified) | 599
31 | Cc1cc(C)c2c(N3CCSCC3)nc(C(=O)N(C)Cc3ccccc3)nc2n1 | 682
32 | CCOC(=O)c1c(C)c(CCC(=O)NCCN2CCOCC2)c(C)n1C | 622
33 | Cc1ccc(NS(=O)(=O)c2cc(-c3nc(C(C)C)cs3)cs2)cc1C | 1260
34 | O=C(NCCn1ccc2ccccc21)C(=O)c1c[nH]c2ccccc12 | 899
35 | CCc1nc2ccccc2n1CC(O)COc1cc(C)c(Cl)c(C)c1 (stereo unspecified) | 770
36 | Cc1ccc(-c2noc(-c3ccccc3S(=O)(=O)Nc3ccc(S(N)(=O)=O)cc3)n2)cc1 | 933
37 | CS(=O)(=O)N(CC(=O)NCc1ccc2c(c1)OCCCO2)Cc1ccc(Cl)cc1 | 889
38 | COc1cccc(C(=O)N2CCC(c3cc(N)on3)CC2)c1 | 653
39 | CC(C)N1C(=O)c2cccnc2Sc2cc(NC(=O)c3ccccc3)ccc21 | 864

More lines, now with the values ahead:

Row | RP-LC retention time [s] | SMILES
40 | 698 | CC(C)CCC(=O)N1CCC2(CC1)CC(C)(O)CCO2 (stereo unspecified)
41 | 637 | O=S(=O)(c1cccnc1)N1CCC(OC2CCN(Cc3ccccc3)CC2)CC1
42 | 795 | Cc1cc(C)n(Cc2nc(-c3ccc(NC(=O)C4CCCO4)cc3)oc2C)n1 (stereo unspecified)
43 | 805 | CCCNC(=O)CCc1nc2ccccc2n(CC(=O)Nc2ccc(OC)c(Cl)c2)c1=O
44 | 816 | CC(Cc1ccco1)NC(=O)CN1C(=O)CN(C(=O)NCc2ccccc2)c2ccccc21 (stereo unspecified)
45 | 736 | Cn1c(N2CCCC(C(=O)NCCCc3ccccc3)C2)cc(=O)n(C)c1=O (stereo unspecified)
46 | 682 | O=C(Cn1ncc2c(c1=O)N(C1CC1)C(=O)CS2)NCc1ccc2c(c1)OCO2
47 | 688 | O=C(NCc1ccc2c(c1)OCO2)c1ccc(S(=O)(=O)NCC2CCCO2)cc1 (stereo unspecified)
48 | 981 | Cc1ccc(Cn2c(N3CCCC(C(=O)NCc4ccccc4F)C3)nc3ccsc3c2=O)cc1 (stereo unspecified)
49 | 806 | CC1=C(c2cccc(Cl)c2)S(=O)(=O)N=C1N1CCCN(C(=O)c2ccoc2)CC1
50 | 938 | COc1cccc(-c2noc(Cn3cnc4c(oc5ccccc54)c3=O)n2)c1
51 | 900 | Cc1noc(-c2cccc(OC3CN(C(=O)c4sccc4C)C3)c2)n1
52 | 782 | Cc1cc(=O)oc2cc(OS(C)(=O)=O)ccc12
53 | 1040 | O=S(=O)(c1ccc2c(c1)OCCO2)N1CCCn2nc(-c3cccc(Cl)c3)cc2C1
54 | 731 | CCOC(=O)N1CCC(NC(=O)Cn2ccc3ccccc32)CC1
55 | 844 | CCc1nnc2ccc(-c3noc(Cc4cc(OC)cc(OC)c4)n3)cn12
56 | 833 | O=C(NCCc1cccs1)C1CCN(Cc2cc3ccccc3n2Cc2cccc(Cl)c2)CC1
57 | 1290 | Cc1ccc(-c2cnc(N3CCCC(C(=O)NCCC4=CCCCC4)C3)nc2)cc1 (stereo unspecified)
58 | 730 | COC(=O)c1c(C)[nH]c(C(=O)N2CCC(CC(=O)NC3CCCCC3)CC2)c1C
59 | 918 | COc1ccc2c(c1)C=C(C(=O)NC1CCCC1)C=CO2
60 | 636 | O=C(NCC1CCOCC1)c1c[nH]c2ccccc12
61 | 601 | CCc1cc(N2CCN(C(=O)COc3ccccc3OC)CC2)nc2nncn12
62 | 599 | O=C(Cc1ccccc1F)N1CCC(Nc2ncnc3c2CCC3)C1 (stereo unspecified)
63 | 1080 | CC1CCCN(C(=O)c2cn(-c3ccc(-c4nc(C(C)(C)C)no4)cn3)cn2)C1 (stereo unspecified)
64 | 640 | CCN(CC)c1ccc(NC(=O)C2C(=O)NC3(C)CC2c2ccccc2O3)c(C)c1 (stereo unspecified)
65 | 690 | CCCNC(=O)C1CCCN(c2nc(C)nc3onc(C)c23)C1 (stereo unspecified)

Row | RP-LC retention time [s] | SMILES
66 | 754 | CCN1CCCn2cc(S(=O)(=O)NCc3cccc(F)c3)cc2C1=O
67 | 730 | CCOC(=O)c1nc2cc(C)c(C)cc2nc1N1CCN(c2ccccn2)CC1
68 | 1380 | CCn1c(=O)c(N2CCCC(C(=O)N3CCN(c4cc(C)ccc4C)CC3)C2)nc2ccccc21 (stereo unspecified)
69 | 843 | O=C(Nc1ccc2c(c1)N(C(=O)c1cccs1)CC2)c1ccc2c(c1)OCO2
70 | 816 | O=C(NCc1ccc(F)cc1F)C1CCN(c2nnc(-c3ccccc3)o2)CC1
71 | 846 | CC(C)NC(=O)c1nc2ccccn2c1-c1ccc(Cl)cc1
72 | 774 | COc1ccc2[nH]cc(CCN3CC(C(=O)Nc4cc(C)ccc4C)CC3=O)c2c1 (stereo unspecified)
73 | 896 | Cn1c(=O)sc2cc(S(=O)(=O)N3CCC(C(=O)NC4CCCCCC4)CC3)ccc21
74 | 944 | COc1cc(OC)c(NC(=O)c2cnn(-c3ccccc3)c2)cc1Cl
75 | 913 | CCS(=O)(=O)Nc1ccc(C2(C(=O)NCc3cccs3)CCCCC2)cc1
76 | 567 | Cc1cc(C(=O)NCCN2CCCCC2)c2cc(Br)ccc2n1
77 | 749 | COc1ccc(C(=O)N2CCN(c3cc(-c4cccs4)[nH]n3)CC2)cc1
78 | 745 | O=C(Nc1cccc(Cl)c1F)N1CCCC1c1nncn1-c1ccccc1 (stereo unspecified)
79 | 808 | O=C(Cc1csc2nc(-c3ccccc3)cn12)NC1CCCCCC1
80 | 593 | CN(C)S(=O)(=O)c1ccc(-c2nnc(C(=O)NCCCN3CCCC3)o2)cc1
81 | 1230 | CC(C)n1c(=O)oc2cc(-c3noc(-c4cc(F)ccc4Cl)n3)ccc21
82 | 677 | CC(C)Cc1nc2cccnc2n1C1CCN(C(=O)Nc2ccccc2)CC1
83 | 729 | CN(C)S(=O)(=O)N1CCc2nc(NC(=O)c3cccs3)sc2C1
84 | 970 | O=c1c2sccc2n(Cc2nc(-c3ccc(F)cc3)no2)c(=O)n1-c1cccc(F)c1
85 | 584 | O=C(NCCn1ncccc1=O)c1c(F)cccc1F
86 | 958 | COCC(=O)N(CCC(C)C)CC(=O)N1CCc2sccc2C1COc1ccccc1F (stereo unspecified)
87 | 1060 | COc1ccc(S(=O)(=O)N2CCC(CCOc3ccccc3F)C2)cc1 (stereo unspecified)
88 | 748 | COc1ccc2[nH]cc(CCN3CC(C(=O)Nc4ccccc4)CC3=O)c2c1 (stereo unspecified)
89 | 1050 | Cc1ccccc1-c1nnc(CSc2nnc(NC(=O)c3ccc(C(F)(F)F)cc3)s2)o1
90 | 1030 | CC(C)Cn1c(=O)c2cc(C(=O)NC(C)c3ccco3)nn2c2ccccc21 (stereo unspecified)
91 | 977 | COc1cc(OC)cc(C(=O)N2CCc3cc(-c4csc(C)n4)ccc32)c1
